Data on 26 molecules can be found in PMC11175440, “Exploring hydrophilic 2,2-di(indol-3-yl)ethanamine derivatives against Leishmania infantum” (PLOS ONE, 2024).

SMILES strings stand for the structures. “Also recorded” adds a separate entry of the source.

The subject of data set [1] is L. infantum MHOM/TN/80/IPT1 promastigotes. The data set is described as follows: L. infantum promastigotes viability assay. It counts as cell-based. The following applies: 72 h; for IC50: scalar dilutions from 20 to 0.31 μM, mean and 95% CI; for inhibition at 20 µM: single dose 20 μM, 26°C. The method, then: The reference strain L. infantum MHOM/TN/80/IPT1 (WHO international reference strain) was purchased from ATCC (ATCC® 50134™) and cultured in Evans’s Modified Tobie Medium (EMTM) at 26–28°C. During the treatment with bisindole derivative compounds, the parasites were maintained in RPMI-PY medium as described previously
The activity of bisindole derivatives was first evaluated on late log/stationary phase L. infantum promastigotes resuspended in 96-well plates (100 μL/well) in complete RPMI-PY medium with a density of 2.5×10^6 parasites/mL. The anti-parasitic activity was initially investigated with the single dose of 20 μM of each compound for 72 h at 26°C. […] As positive control, the anti-leishmanial drug miltefosine (Sigma-Aldrich, Milan, Italy) was included. Each condition was carried out in duplicate. The promastigotes viability was evaluated using the CellTiter 96H aqueous non-radioactive cell proliferation assay (Promega, Madison, Wisconsin, USA), as previously reported. The efficacy of selected compounds was evaluated by determining the IC50 values using the non-linear regression curves in GraphPad Prism 8.0 (GraphPad Software, Inc., San Diego, CA, USA). The equation used for data fitting was Y = 100/(1+10^((LogIC50-X)*HillSlope)) (hillslope not constrained), where X is equal to the log of concentration and Y is the normalized response.

In data set [2] the test system is THP-1 cells. The data set is described as follows: Cytotoxicity assay on PMA-differentiated THP-1 macrophage-like cells. It counts as cell-based, human. The following applies: CC50 in THP-1 / IC50 against L. infantum promastigotes. The method, then:
(§1) The human monocytic cell line THP-1 (ECACC 88081201) was cultured in RPMI-1640 medium supplemented with 10% heat-inactivated fetal bovine serum (FBS), 2 mM L-glutamine, 10 g/L non-essential amino acid, 1 mM sodium pyruvate, 100 μg/mL streptomycin, […]. Cells were maintained in a humidified incubator at 37°C and 5% CO2. All cell culture reagents were purchased from Sigma-Aldrich (St. Louis, MO, USA).
(§2) The cytotoxicity of bisindole derivative compounds was evaluated on THP-1 cells. Briefly, cells were resuspended at a density of 5×10^6 cells/mL, 100 μL/well were seeded in a 96-well plate and treated for 48 h with 20 ng/mL phorbol myristic acid (PMA) to induce differentiation into macrophages-like cells. After cell adhesion, selected compounds were used at 4, 20, and 100 μM, for 72 h at 37°C. […] Compounds with cytotoxicity higher than 20 μM were further tested to determine CC50 with scalar dilutions 1:2 or 2:3 (from 100 to 3.12 μM).
(§3) The negative control (not-treated cells) and the anti-leishmanial drug miltefosine were included in each experiment. Each condition was carried out in duplicate. To evaluate the cytotoxicity of the selected compounds, the CellTiter 96H Aqueous Non-Radioactive Cell Proliferation Assay (Promega) was performed as described above. For each compound, the SI was calculated as the ratio between cytotoxicity in THP-1 and activity against L. infantum promastigotes.

Assay in data set [3]: as above
The data set is classed as cell-based, human. Particulars: human, PMA-differentiated THP-1 macrophage-like cells; 72 h, scalar dilutions from 100 to 3.12 μM; mean and 95% CI. Here is the method:
as §1, §2, §3

In data set [4] the test system is infected THP-1 cells. The data set is described as follows: Cytotoxic effect on infected THP-1 cells (cell count, Hoechst staining). It counts as cell-based, human. The following applies: 72 h, 1.25-20 μM.
Procedure: THP-1 cells were plated in a 96-well plate and differentiated as described above. After differentiation, cells were infected with a parasite-to-cell ratio of 10:1 for 24 h with L. infantum MHOM/TN/80/IPT1 promastigotes previously stained with carboxyfluorescein succinimidyl ester (CFSE) dye (Invitrogen, Waltham, Massachusetts, USA) following manufacturer’s instructions. Briefly, Leishmania cells were washed twice with PBS to remove any trace of serum and resuspended 1×10^7/mL PBS. CFSE was then added at 5 μM final concentration, and promastigotes were incubated for 15 min at 37°C in the dark. The labeling was stopped by adding 4 volumes of cold complete media containing 10% serum and incubating in ice for 5 min. Labeled parasites were washed three times with complete RPMI medium and used for the infection. […] To analyze the infection, cells were washed, formaldehyde/methanol fixed, stained with Hoechst dye, and observed with a fluorescence microscope. Images were acquired (at 5× magnification) at 494 nm excitation/521 nm emission (green) and 350 nm excitation/460 emission (blue) for CFSE and Hoechst staining, respectively. Automated cell counting of single-color images was performed with ImageJ software to monitor the infection: the promastigotes count on each green image was normalized with the cell count on the corresponding blue image. The normalized value of infected non-treated cells was taken as 100%. To calculate IC50, the percentage values of Leishmania cell count normalized to THP-1 cells were plotted against the log10 concentration (μM) of each compound.
(B) The effect of treatment was monitored by counting the number of cells. Data are represented as mean ± SD. Two-way ANOVA; Dunnett’s multiple comparisons test; *adjusted p < 0.05, **adjusted p < 0.01.
Data set [5] concerns L. infantum intracellular amastigotes. The data set is described as follows: Anti-amastigote assay on infected THP-1 cells. Particulars: Leishmania infantum; THP-1 cells infected 24 h, 72 h treatment, 20 to 0.31 μM; read-out: IC50 against L. infantum intracellular amastigotes. It counts as cell-based. Here is the method: THP-1 cells were plated in a 96-well plate and differentiated as described above. […] Briefly, Leishmania cells were washed twice with PBS to remove any trace of serum and resuspended 1×10^7/mL PBS. […] Labeled parasites were washed three times with complete RPMI medium and used for the infection. […] To analyze the infection, cells were washed, formaldehyde/methanol fixed, stained with Hoechst dye, and observed with a fluorescence microscope. Images were acquired (at 5× magnification) at 494 nm excitation/521 nm emission (green) and 350 nm excitation/460 emission (blue) for CFSE and Hoechst staining, respectively. Automated cell counting of single-color images was performed with ImageJ software to monitor the infection: the promastigotes count on each green image was normalized with the cell count on the corresponding blue image. […] To calculate IC50, the percentage values of Leishmania cell count normalized to THP-1 cells were plotted against the log10 concentration (μM) of each compound.

What is called IC50 is the concentration that inhibits the measured activity by half. A word on the inhibition: it is the relative decrease from the control value, in per cent. One may read the CC50 as the concentration that lowers cell viability or growth by half. Low values mean harm at low concentration, high ones better tolerance by the cells.

As to `NCC(c1c[nH]c2ccccc12)c1c[nH]c2ccccc12` [1a], half-maximal inhibition in data set [1] (IC50) required 12.9 µM. Also, in data set [1] (Leishmania infantum), the IC50 was more than 10 µM and the inhibition at 20 µM is 82.3%.
Turning to `NCC(c1c[nH]c2cc(F)ccc12)c1c[nH]c2cc(F)ccc12` [1b], the “SI (CC50/IC50)” value in data set [2] is listed as 4.7. In data set [3], the midpoint of cytotoxicity, the CC50 at 72 h, lay at 40.4 µM. In data set [1] (Leishmania infantum), the IC50 is 8.6 µM and the inhibition at 20 µM came out at 89.1%.
For `NCC(c1c[nH]c2cc(Cl)ccc12)c1c[nH]c2cc(Cl)ccc12` [1c], the “SI (CC50/IC50)” value in data set [2] was 5.3. The molecule further yielded a CC50 at 72 h in data set [3] of 39.4 µM. In data set [1] (Leishmania infantum), it took 7.4 µM to reach half-maximal inhibition (IC50) and the inhibition at 20 µM stood at 95.6%.
As for `NCC(c1c[nH]c2cc(Br)ccc12)c1c[nH]c2cc(Br)ccc12` [1d, 2,2-bis(6-bromo-1H-indol-3-yl)ethanamine], the inhibition at 20 µM in data set [1] (Leishmania infantum) is 96.8%.
For the molecule `NCC(c1c[nH]c2ccc(I)cc12)c1c[nH]c2ccc(I)cc12` [1e], in data set [1] (Leishmania infantum), the inhibition at 20 µM turned out to be 97.8%.
On to `COC(=O)c1ccc2c(C(CN)c3c[nH]c4cc(C(=O)OC)ccc34)c[nH]c2c1` [1f], for which the “SI (CC50/IC50)” value in data set [2] is on record as 4.9. Further, the CC50 at 72 h in data set [3] stood at 40.1 µM. Moreover, in data set [1] (Leishmania infantum), the IC50 was 8.2 µM and the inhibition at 20 µM came out at 89.7%.
For the molecule `N#Cc1ccc2[nH]cc(C(CN)c3c[nH]c4ccc(C#N)cc34)c2c1` [1g], the inhibition at 20 µM in data set [1] (Leishmania infantum) is -1.6%.
For the molecule `Cn1cc(C(CN)c2cn(C)c3ccccc23)c2ccccc21` [1h], in data set [2], the “SI (CC50/IC50)” value amounted to 10.1. The molecule also returned a CC50 at 72 h in data set [3] of 41.6 µM. The half-inhibitory concentration (IC50) in data set [1] (Leishmania infantum) was 4.1 µM; in data set [5], 11.1 µM. Besides, in data set [1] (Leishmania infantum), the inhibition at 20 µM came to 98%. In addition, the “cytotoxicity in the infection model” value in data set [4] was “better toxicity profile than the commercial drug miltefosine; also recorded: better toxicity profile compared to the commercial drug miltefosine”.
For the molecule `Cn1cc(C(CN)c2cn(C)c3cc(Br)ccc23)c2ccc(Br)cc21` [1i], the inhibition at 20 µM in data set [1] (Leishmania infantum) came to 98%.
Regarding `CC(C)CNCC(c1c[nH]c2cc(Br)ccc12)c1c[nH]c2cc(Br)ccc12` [2a], the inhibition at 20 µM in data set [1] (Leishmania infantum) worked out at 97.8%.
Regarding `Fc1ccc(CNCC(c2c[nH]c3cc(Br)ccc23)c2c[nH]c3cc(Br)ccc23)cc1` [2b], the inhibition at 20 µM in data set [1] (Leishmania infantum) is 98.2%.
For the molecule `Clc1ccc(CNCC(c2c[nH]c3cc(Br)ccc23)c2c[nH]c3cc(Br)ccc23)cc1` [2c], the “SI (CC50/IC50)” value in data set [2] stood at 4.3. This molecule returned a CC50 at 72 h in data set [3] of 11.7 µM. Besides, the IC50 in data set [1] (Leishmania infantum) is 2.7 µM; in data set [5], 6.8 µM. In addition, the inhibition at 20 µM in data set [1] (Leishmania infantum) stood at 98.1%. In data set [4], the “cytotoxicity in the infection model” value is “high cellular toxicity”.
Turning to `O=[N+]([O-])c1ccc(CNCC(c2c[nH]c3cc(Br)ccc23)c2c[nH]c3cc(Br)ccc23)cc1` [2d], the “SI (CC50/IC50)” value in data set [2] worked out at 3.4. Further, in data set [3], the CC50 at 72 h stood at 13.2 µM. Also, in data set [1] (Leishmania infantum), the IC50 is 3.9 µM and the inhibition at 20 µM came to 95%.
In the case of `Cc1ccc(CNCC(c2c[nH]c3cc(Br)ccc23)c2c[nH]c3cc(Br)ccc23)cc1` [2e], the inhibition at 20 µM in data set [1] (Leishmania infantum) was 95.8%.
As for `Brc1ccc2c(C(CNCc3ccco3)c3c[nH]c4cc(Br)ccc34)c[nH]c2c1` [2f], the inhibition at 20 µM in data set [1] (Leishmania infantum) amounted to 95.2%.
As to `Brc1ccc2c(C(CNCc3cccs3)c3c[nH]c4cc(Br)ccc34)c[nH]c2c1` [2g], in data set [1] (Leishmania infantum), the inhibition at 20 µM worked out at 95.5%.
On to `CC(C)C(=O)NCC(c1c[nH]c2cc(Br)ccc12)c1c[nH]c2cc(Br)ccc12` [3a], for which the inhibition at 20 µM in data set [1] (Leishmania infantum) came out at 96.7%.
For `O=C(NCC(c1c[nH]c2cc(Br)ccc12)c1c[nH]c2cc(Br)ccc12)c1ccc(F)cc1` [3b], in data set [2], the “SI (CC50/IC50)” value is 2.3. In data set [3], this molecule displayed a CC50 at 72 h of 21.9 µM. In data set [1] (Leishmania infantum), the IC50 turned out to be 9.5 µM and the inhibition at 20 µM turned out to be 97.7%.
Turning to `O=C(NCC(c1c[nH]c2cc(Br)ccc12)c1c[nH]c2cc(Br)ccc12)c1ccc(Cl)cc1` [3c], the inhibition at 20 µM in data set [1] (Leishmania infantum) turned out to be 97.4%.
As to `O=C(NCC(c1c[nH]c2cc(Br)ccc12)c1c[nH]c2cc(Br)ccc12)c1ccc([N+](=O)[O-])cc1` [3d], the inhibition at 20 µM in data set [1] (Leishmania infantum) was determined as 90.4%.
`COc1ccc(C(=O)NCC(c2c[nH]c3cc(Br)ccc23)c2c[nH]c3cc(Br)ccc23)cc1` [3e]: the IC50 in data set [1] is 12.2 µM; in data set [1] (Leishmania infantum), more than 10 µM. Further, the inhibition at 20 µM in data set [1] (Leishmania infantum) was determined as 95.2%.
As for `O=C(NCC(c1c[nH]c2cc(Br)ccc12)c1c[nH]c2cc(Br)ccc12)c1ccco1` [3f], the inhibition at 20 µM in data set [1] (Leishmania infantum) was 97.2%.
As to `O=C(NCC(c1c[nH]c2cc(Br)ccc12)c1c[nH]c2cc(Br)ccc12)c1cccs1` [3g], in data set [1] (Leishmania infantum), the inhibition at 20 µM was determined as 96.9%.
Turning to `Cc1ccc(S(=O)(=O)NCC(c2c[nH]c3cc(Br)ccc23)c2c[nH]c3cc(Br)ccc23)cc1` [4a], the “SI (CC50/IC50)” value in data set [2] amounted to 2.1. In data set [3], this molecule had a CC50 at 72 h of 20.2 µM. Moreover, in data set [1] (Leishmania infantum), the IC50 worked out at 9.8 µM and the inhibition at 20 µM came out at 96.9%.
For `Cc1ccc(S(=O)(=O)NCC(c2cn(C)c3ccccc23)c2cn(C)c3ccccc23)cc1` [4b], the inhibition at 20 µM in data set [1] (Leishmania infantum) was determined as 45.7%.
Consider `O=S(=O)(NCC(c1c[nH]c2cc(Br)ccc12)c1c[nH]c2cc(Br)ccc12)c1cccs1` [4c], for which, in data set [1] (Leishmania infantum), the inhibition at 20 µM was 97.6%.
